Experimental findings from PubChem BioAssay AID1745844 (Carcinogenic Potency Database (CPDB), 2022) are described below.

Active and inactive are the calls of the source. No rule for the calls is given here.

The data set has as its system rodent lifetime carcinogenesis bioassay, tumor incidence TD50. Put plainly: chronic cancer bioassays in animals – CPDB, compiled studies (AID 1745844).

Regarding `OC[C@H]1O[C@@H]2O[C@H]3[C@H](O)[C@@H](O)[C@@H](O[C@H]4[C@H](O)[C@@H](O)[C@@H](O[C@H]5[C@H](O)[C@@H](O)[C@@H](O[C@H]6[C@H](O)[C@@H](O)[C@@H](O[C@H]7[C@H](O)[C@@H](O)[C@@H](O[C@H]8[C@H](O)[C@@H](O)[C@@H](O[C@H]1[C@H](O)[C@H]2O)O[C@@H]8CO)O[C@@H]7CO)O[C@@H]6CO)O[C@@H]5CO)O[C@@H]4CO)O[C@@H]3CO`, the carcinogen call is “negative (inactive)” (mouse, strain Charles River CD1, females, in feed, site: lung, lesion: several types, types named in the paper, dosed 104 weeks, study length 104 weeks); “negative (inactive)” (rat, strain Charles River CD (Sprague-Dawley), females, in feed, site: liver, lesion: one or several types, types not named, dosed 52 weeks, study length 52 weeks); “negative (inactive)” (rat, strain Charles River CD (Sprague-Dawley), males, in feed, site: liver, lesion: one or several types, types not named, dosed 52 weeks, study length 52 weeks); “negative (inactive)” (rat, strain F344/DuCrj, females, in feed, site: liver, lesion: hepatocellular adenoma, dosed 104 weeks, study length 109 weeks); “negative (inactive)” (rat, strain F344/DuCrj, males, in feed, site: any site (literature study), lesion: several types, types named in the paper, dosed 104 weeks, study length 109 weeks); “negative (inactive)” (rat, strain F344/DuCrj, males, in feed, site: liver, lesion: hepatocellular adenoma, dosed 104 weeks, study length 109 weeks). The TD50 (in general, the dose at which the toxic effect under study appears in half of the subjects) by setting is: (mouse, strain Charles River CD1, males, in feed, site: lung, lesion: several types, types named in the paper, dosed 93 weeks, study length 93 weeks) 728 mg/kg/day (inactive); (rat, strain F344/DuCrj, females, in feed, site: any site (literature study), lesion: several types, types named in the paper, dosed 104 weeks, study length 109 weeks) 85900 mg/kg/day (inactive); (rat, strain Fischer 344, females, in feed, site: uterus, lesion: adenocarcinoma, dosed 129 weeks, study length 129 weeks) 22700 mg/kg/day (inactive); (rat, strain Fischer 344, males, in feed, site: testis, lesion: interstitial-cell tumor, dosed 122 weeks, study length 122 weeks) 157 mg/kg/day (inactive).
In the case of `CCOc1ccc(NC(C)=O)cc1N`, the TD50 reads like this: (mouse, strain B6C3F1, females, in feed, site: any site (literature study), lesion: several types, types named in the paper, dosed 78 weeks, study length 93 weeks) 569 mg/kg/day; (mouse, strain B6C3F1, females, in feed, site: lung, lesion: alveolar/bronchiolar adenoma + alveolar/bronchiolar carcinoma, dosed 78 weeks, study length 93 weeks) 8630 mg/kg/day; (mouse, strain B6C3F1, females, in feed, site: pituitary gland, lesion: adenoma, NOS + carcinoma, NOS + chromophobe adenoma, dosed 78 weeks, study length 93 weeks) 1050 mg/kg/day (inactive); (mouse, strain B6C3F1, males, in feed, site: liver, lesion: hepatocellular adenoma + hepatocellular carcinoma + neoplastic nodule, dosed 78 weeks, study length 93 weeks) 8990 mg/kg/day; (mouse, strain B6C3F1, males, in feed, site: thyroid gland, lesion: adenocarcinoma, NOS + adenoma, NOS + follicular-cell adenoma + follicular-cell carcinoma, dosed 78 weeks, study length 93 weeks) 2070 mg/kg/day; (mouse, strain B6C3F1, males, in feed, site: thyroid gland, lesion: adenocarcinoma, NOS + follicular-cell carcinoma, dosed 78 weeks, study length 93 weeks) 4020 mg/kg/day. Also, the TD50 is 3770 mg/kg/day (mouse, strain B6C3F1, males, in feed, site: thyroid gland, lesion: follicular-cell carcinoma, dosed 78 weeks, study length 93 weeks); 415 mg/kg/day (inactive) (rat, strain Fischer 344, females, in feed, site: adrenal gland, lesion: cortical adenoma + cortical carcinoma, dosed 78 weeks, study length 106 weeks); 717 mg/kg/day (rat, strain Fischer 344, females, in feed, site: liver, lesion: hepatocellular adenoma + hepatocellular carcinoma + neoplastic nodule, dosed 78 weeks, study length 106 weeks); 610 mg/kg/day (inactive) (rat, strain Fischer 344, males, in feed, site: thyroid gland, lesion: c-cell carcinoma, dosed 78 weeks, study length 106 weeks).
`O=C[C@H](NC(=O)N(CCCl)N=O)[C@@H](O)[C@H](O)[C@H](O)CO`: the TD50 runs as follows: (rat, strain Sprague-Dawley, females, i.p., site: any site (literature study), lesion: malignant tumor, dosed 88 weeks, study length 114 weeks) 0.108 mg/kg/day; (rat, strain Sprague-Dawley, females, i.p., site: peritoneal cavity, lesion: several types, types named in the paper, dosed 88 weeks, study length 114 weeks) 0.0844 mg/kg/day; (rat, strain Sprague-Dawley, males, i.p., site: any site (literature study), lesion: malignant tumor, dosed 77 weeks, study length 100 weeks) 0.0521 mg/kg/day; (rat, strain Sprague-Dawley, males, i.p., site: peritoneal cavity, lesion: several types, types named in the paper, dosed 77 weeks, study length 100 weeks) 0.0241 mg/kg/day.
For `COC(N)=O`, the carcinogen call (mouse, strain B6C3F1, females, by gavage, site: any site (literature study), lesion: several types, types named in the paper, dosed 103 weeks, study length 104 weeks) was “negative (inactive)”. Also, the TD50 is, setting by setting: (mouse, strain B6C3F1, females, by gavage, site: liver, lesion: hepatocellular adenoma + hepatocellular carcinoma + neoplastic nodule, dosed 103 weeks, study length 104 weeks) 4700 mg/kg/day; (mouse, strain B6C3F1, males, by gavage, site: any site (literature study), lesion: several types, types named in the paper, dosed 103 weeks, study length 104 weeks) 5220 mg/kg/day (inactive); (mouse, strain B6C3F1, males, by gavage, site: liver, lesion: hepatocellular adenoma + hepatocellular carcinoma + neoplastic nodule, dosed 103 weeks, study length 104 weeks) 5080 mg/kg/day; (rat, strain Fischer 344, females, by gavage, site: liver, lesion: hepatocellular adenoma + hepatocellular carcinoma + neoplastic nodule, dosed 103 weeks, study length 104 weeks) 839 mg/kg/day; (rat, strain Fischer 344, females, by gavage, site: liver, lesion: hepatocellular carcinoma + neoplastic nodule, dosed 103 weeks, study length 104 weeks) 839 mg/kg/day; (rat, strain Fischer 344, females, by gavage, site: liver, lesion: hepatocellular carcinoma, dosed 52 weeks, study length 52 weeks) 53.4 mg/kg/day. In addition, the TD50 is 68.4 mg/kg/day (rat, strain Fischer 344, females, by gavage, site: liver, lesion: hepatocellular carcinoma, dosed 78 weeks, study length 78 weeks); 21.3 mg/kg/day (rat, strain Fischer 344, females, by gavage, site: liver, lesion: neoplastic nodule, dosed 52 weeks, study length 52 weeks); 159 mg/kg/day (rat, strain Fischer 344, females, by gavage, site: liver, lesion: neoplastic nodule, dosed 78 weeks, study length 78 weeks); 979 mg/kg/day (rat, strain Fischer 344, females, by gavage, site: liver, lesion: neoplastic nodule, dosed 103 weeks, study length 104 weeks); 2030 mg/kg/day (rat, strain Fischer 344, males, by gavage, site: liver, lesion: hepatocellular adenoma + hepatocellular carcinoma + neoplastic nodule, dosed 103 weeks, study length 104 weeks); 2030 mg/kg/day (rat, strain Fischer 344, males, by gavage, site: liver, lesion: hepatocellular carcinoma + neoplastic nodule, dosed 103 weeks, study length 104 weeks). Besides, the TD50 is 30.4 mg/kg/day (rat, strain Fischer 344, males, by gavage, site: liver, lesion: hepatocellular carcinoma, dosed 52 weeks, study length 52 weeks); 47.8 mg/kg/day (rat, strain Fischer 344, males, by gavage, site: liver, lesion: hepatocellular carcinoma, dosed 78 weeks, study length 78 weeks); 40.7 mg/kg/day (rat, strain Fischer 344, males, by gavage, site: liver, lesion: neoplastic nodule, dosed 52 weeks, study length 52 weeks); 494 mg/kg/day (rat, strain Fischer 344, males, by gavage, site: liver, lesion: neoplastic nodule, dosed 78 weeks, study length 78 weeks).
For the compound `OO`, the TD50 (mouse, strain C57BL/6J, females, in drinking water, site: duodenum, lesion: adenoma, dosed 100 weeks, study length 100 weeks) stood at 2010 mg/kg/day; the TD50 (mouse, strain C57BL/6J, females, in drinking water, site: duodenum, lesion: carcinoma, dosed 100 weeks, study length 100 weeks) was 7540 mg/kg/day; the TD50 (mouse, strain C57BL/6J, females, in drinking water, site: duodenum, lesion: several types, types named in the paper, dosed 100 weeks, study length 100 weeks) turned out to be 7830 mg/kg/day; the TD50 (mouse, strain C57BL/6J, males, in drinking water, site: duodenum, lesion: adenoma, dosed 100 weeks, study length 100 weeks) amounted to 7350 mg/kg/day; the TD50 (mouse, strain C57BL/6J, males, in drinking water, site: duodenum, lesion: carcinoma, dosed 100 weeks, study length 100 weeks) stood at 15000 mg/kg/day; the TD50 (mouse, strain C57BL/6J, males, in drinking water, site: duodenum, lesion: several types, types named in the paper, dosed 100 weeks, study length 100 weeks) is 4800 mg/kg/day.
